Columns and labels:
Assay type in all cases: in vivo
[1] = tested on: adult engorged female ticks (Rhipicephalus microplus); experiment: Rhipicephalus (Boophilus) microplus injection test; conditions: 168 h, 4 μg/animal, egg deposition after 7 days, read-out: efficacy (infertile eggs)
How it was run: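 Compound in DMSO (10 mg per 0.5 mL, then diluted with DMSO to test concentration); 1 μL injected into the abdomen of each of five engorged females, then held in a climate chamber. Fertile egg deposition checked at 7 days; efficacy 100% = all eggs infertile, 0% = all fertile.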

[2] = tested on: adult unfed cat fleas (Ctenocephalides felis); experiment: Ctenocephalides felis oral test; conditions: 48 h, 100 ppm in citrated cattle blood, after 2 days
Method: Ctenocephalides felis—Oral Test
Solvent: dimethyl sulfoxide
To produce a suitable preparation of active compound, 10 mg of active compound are dissolved in 0.5 mL solvent, and the concentrate is diluted with citrated cattle blood to the desired concentration.
Approximately 20 adult unfed cat fleas (Ctenocephalides felis) are placed in a flea chamber whose top and bottom is covered with gauze. A chamber whose bottom is sealed with parafilm, is filled with the blood-compound solution and placed on top of the flea chamber, so that the fleas can suck the blood. The blood chamber is heated to 37° C. whereas the flea chamber is kept at room temperature.
After 2 days mortality in % is determined. 100% means all the fleas have been killed; 0% means none of the fleas have been killed.

[3] = tested on: Rhipicephalus (Boophilus) microplus larvae (strain Parkhurst, resistant against synthetic pyrethroids); experiment: Rhipicephalus (Boophilus) microplus in-vitro contact test, larval cattle tick; conditions: after 48 hours, read-out: efficacy (larvae dead or moribund); for pest or weed control at 1 µg/cm2, 100 g/ha: 1 μg/cm^2 (=100 g/ha); for pest or weed control at 5 µg/cm2, 500 g/ha: 5 μg/cm^2 (=500 g/ha)
How it was run: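 Pyrethroid-resistant larvae (strain Parkhurst), 20–50 per tube, exposed by contact to a dried acetone film of compound (5 μg/cm² at 900 ppm) for 48 h at 27 °C and 85% humidity. Percent dead or moribund larvae scored from negative geotactic behaviour.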

[4] = tested on: adult mosquitoes Anopheles funestus strain FUMOZ-R; experiment: Anopheles funestus test (ANPHFU surface treatment & contact assay); conditions: 24 hours after contact, read-out: mortality (efficacy); for mortality at 20 mg/m2: surface concentration 20 mg/m^2, 30 minutes exposure
Method: Anopheles funestus Test (ANPHFU Surface Treatment & Contact Assay)
(§1) Solvent: Aceton+2000 ppm rapeseed oil methyl ester (RME)
In order to produce a sufficient, active ingredient containing solution it is necessary to solve the test compound in the solvent-mix (acetone at 2 mg/ml/RME 2000 ppm). This solution is pipetted onto a glazed tile and after evaporation of the acetone, adult mosquitoes of the species Anopheles funestus strain FUMOZ-R (Hunt et al., Med. Vet. Entomol. 2005 Sep. 19(3): 271-275) are placed onto the dried surface. The exposure time is 30 minutes.
(§2) Mortality in percent (%) is determined 24 hours after contact of the insects to the treated surface. 100% mortality means that all tested insects are dead, whereas 0% means that no insect died.

[5] = tested on: adult mosquitoes Aedes aegypti strain MONHEIM; experiment: Aedes aegypti test (AEDSAE surface treatment & contact assay); conditions: 24 hours after contact, read-out: mortality (efficacy); for mortality at 20 mg/m2: surface concentration 20 mg/m^2, 30 minutes exposure
Method: Aedes aegypti Test (AEDSAE Surface Treatment & Contact Assay)
as §1
In order to produce a sufficient, active ingredient containing solution it is necessary to solve the test compound in the solvent-mix (acetone at 2 mg/ml/RME 2000 ppm). This solution is pipetted onto a glazed tile and after evaporation of the acetone, adult mosquitoes of the species Aedes aegypti strain MONHEIM are placed onto the dried surface. The exposure time is 30 minutes.
as §2

[6] = tested on: larvae of the southern green stink bug (Nezara viridula); experiment: Nezara viridula spray test; conditions: 96 h, 100 g/ha, barley plants, after 4 days
How it was run: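 Larva-infested barley (Hordeum vulgare) plants received a spray of test solution prepared from an acetone/DMF concentrate diluted in emulsifier-containing water (1000 ppm). Percent kill read 4 days later; 0% means no stink bugs dead.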

[7] = tested on: adult brown dog ticks (Rhipicephalus sanguineus); experiment: Rhipicephalus sanguineus in-vitro contact test, adult brown dog ticks; conditions: 48 h, 5 μg/cm^2 (=500 g/ha), after 48 hours, read-out: efficacy (ticks dead or moribund)
How it was run: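 Acetone solution coated on glass tube inner walls (900 ppm, giving 5 μg/cm^2); after drying, 5–10 adult ticks added and kept 48 h at room temperature. Efficacy scored as percent dead or moribund, i.e., ticks unable to climb away on a 45–50 °C heating plate within 5 min.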

[8] = tested on: adult cat fleas (Ctenocephalides felis); experiment: Ctenocephalides felis in-vitro contact test, adult cat flea; conditions: after 48 hours, read-out: efficacy (fleas dead or moribund); for pest or weed control at 1 µg/cm2, 100 g/ha: 1 μg/cm^2 (=100 g/ha); for pest or weed control at 5 µg/cm2, 500 g/ha: 5 μg/cm^2 (=500 g/ha)
How it was run: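 Acetone solution coated onto glass tube walls; 900 ppm gives 5 μg/cm². Once dry, 5–10 adult fleas per tube held at room temperature for 48 h. Efficacy (%) is the share of fleas dead or moribund, i.e. unable to climb away on a 45–50° C heating plate.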

[9] = tested on: larvae of the banded cucumber beetle (Diabrotica balteata); experiment: Diabrotica balteata spray test; conditions: 168 h, after 7 days, read-out: efficacy (seedling growth); for pest or weed control at 32 µg/disc, 100 g/ha: 100 g/ha (=32 μg/well); for pest or weed control at 6.4 µg/disc, 20 g/ha: 20 g/ha (=6.4 μg/well)
How it was run: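 Efficacy was read 7 days after infesting each unit with 10–20 banded cucumber beetle larvae, as % of seedlings growing like untreated, uninfested controls. Before infestation, wheat seeds germinated 1 day on agar (5 per well) were sprayed with the active ingredient. The active was formulated in acetone/DMF and diluted in water containing emulsifier.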

[10] = tested on: green peach aphid (Myzus persicae); experiment: Myzus persicae oral test; conditions: 120 h, 4 ppm, after 5 days
Method: Solvent: 100 parts by weight acetone
(§3) To produce a suitable preparation of active compound, 1 part by weight of active compound is mixed with the stated amount of solvent, and the concentrate is diluted with water to the desired concentration.
50 μL compound solution is filled in microtiter plates and 150 μL IPL41 insect medium (33%+15% sugar) is added to obtain a total volume of 200 μL per well. Afterwards the plates are sealed with parafilm through which a mixed population of the green peach aphid (Myzus persicae) can suck on the compound preparation.
(§4) After 5 days mortality in % is determined. 100% means all aphids have been killed and 0% means none of the aphids have been killed.

[11] = tested on: southern root-knot nematode (Meloidogyne incognita); experiment: Meloidogyne incognita test; conditions: 20 ppm, after 14 days
Method: Meloidogyne incognita—Test
Solvent: 125.0 parts by weight of acetone
as §3
Vessels are filled with sand, a solution of the active ingredient, a suspension containing eggs and larvae of the southern root-knot nematode (Meloidogyne incognita) and salad seeds. The salad seeds germinate and the seedlings grow. Galls develop in the roots.
After 14 days the nematicidal activity is determined based on the percentage of gall formation. 100% means no galls were found and 0% means the number of galls found on the roots of the treated plants was equal to that in untreated control plants.

[12] = tested on: fall armyworm larvae (Spodoptera frugiperda); experiment: Spodoptera frugiperda spray test; conditions: 168 h, maize leaf sections, after 7 days
How it was run: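 Percent larval kill read at day 7, from 0% (no caterpillars dead) to 100% (all dead). Larvae were placed on dried Zea mays leaf discs previously sprayed with test preparations made from an acetone/DMF solution diluted in 1000 ppm emulsifier-containing water.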

[13] = tested on: adult flies Musca domestica strain WHO-N; experiment: Musca domestica test (MUSCDO surface treatment & contact assay); conditions: surface concentration 20 mg/m^2, 30 minutes exposure, 24 hours after contact, read-out: mortality (efficacy)
Method: Musca domestica Test (MUSCDO Surface Treatment & Contact Assay)
as §1
In order to produce a sufficient, active ingredient containing solution it is necessary to solve the test compound in the solvent-mix (acetone at 2 mg/ml/RME 2000 ppm). This solution is pipetted onto a glazed tile and after evaporation of the acetone, adult flies of the species Musca domestica strain WHO-N are placed onto the dried surface. The exposure time is 30 minutes.
as §2

[14] = tested on: brown planthopper (Nilaparvata lugens); experiment: Nilaparvata lugens spray test; conditions: 96 h, 500 g/ha, rice plants, after 4 days
Method: Nilaparvata lugens—Spray Test
Solvent: 78.0 parts by weight of acetone • • 1.5 parts by weight of dimethylformamide
(§5) Emulsifier: alkylarylpolyglycol ether
(§6) To produce a suitable preparation of active compound, 1 part by weight of active compound is mixed with the stated amount of solvents and is diluted with water, containing an emulsifier concentration of 1000 ppm, to the desired concentration. Further test concentrations are prepared by dilution with emulsifier containing water.
Rice plants (Oryza sativa) are sprayed with a preparation of the active ingredient of the desired concentration and the plants are infested with the brown planthopper (Nilaparvata lugens).
After 4 days mortality in % is determined. 100% means all planthoppers have been killed and 0% means none of the planthoppers have been killed.

[15] = tested on: green peach aphid (Myzus persicae); experiment: Myzus persicae spray test; conditions: foliar, 120 h, Chinese cabbage leaf disks, after 5 days
Method: Myzus persicae—Spray Test
Solvent: 78.0 parts by weight acetone • 1.5 parts by weight dimethylformamide
as §5, §6
Chinese cabbage (Brassica pekinensis) leaf disks infected with all instars of the green peach aphid (Myzus persicae), are sprayed with a preparation of the active ingredient of the desired concentration.
as §4

[16] = surface concentration 4 mg/m^2, 30 minutes exposure

Compound | pest or weed control at 0.004 mg [1] [%] | mortality at 100 ppm [2] [%] | pest or weed control at 1 µg/cm2, 100 g/ha [3] [%] | pest or weed control at 5 µg/cm2, 500 g/ha [3] [%] | mortality at 4 mg/m2 [4, 16] [%] | mortality at 20 mg/m2 [4] [%] | mortality at 4 mg/m2 [5, 16] [%] | mortality at 20 mg/m2 [5] [%] | mortality at 100 g/ha [6] [%] | pest or weed control at 5 µg/cm2, 500 g/ha [7] [%] | pest or weed control at 1 µg/cm2, 100 g/ha [8] [%] | pest or weed control at 5 µg/cm2, 500 g/ha [8] [%] | pest or weed control at 32 µg/disc, 100 g/ha [9] [%] | mortality at 4 ppm [10] [%] | nematicidal activity (based on gall formation) [11] [%] | pest or weed control at 6.4 µg/disc, 20 g/ha [9] [%] | mortality at 100 g/ha [12] [%] | mortality at 20 mg/m2 [13] [%] | mortality at 500 g/ha [14] [%] | mortality at 100 g/ha [15] [%]
CC(NC(=O)c1cncc(C(F)(F)F)c1)c1nccnc1-c1ncccn1 (racemic) [Example I-9, (rac)-N-(1-(3-(Pyrimidin-2-yl)pyrazin-2-yl)ethyl)-5-(trifluoromethyl)nicotinamide] | 100 | 80 | 100 | 100 | 80 to 100 | 80 to 100 | 80 to 100 | 80 to 100 | 90 | 80 |  |  |  |  |  |  |  |  |  | 
CC(NC(=O)c1cc(C(F)(F)F)cc(C(F)(F)F)c1)c1nccnc1-c1ccc(C(=O)N2CCOCC2)cn1 (racemic) [Example I-34, (rac)-N-[1-{3-[5-(morpholine-4-carbonyl)pyridin-2-yl]pyrazin-2-yl}ethyl]-3,5-bis(trifluoromethyl)benzamide] |  |  | 100 | 100 |  |  |  |  |  | 80 | 80 | 90 | 80 | 100 |  |  |  |  |  | 
CC(NC(=O)c1cc(Br)cc(C#N)c1)c1nccnc1-c1nccs1 (racemic) [Example I-55, (rac)-3-Bromo-5-cyano-N-{1-[3-(1,3-thiazol-2-yl)pyrazin-2-yl]ethyl}benzamide] |  | 100 |  |  |  |  |  |  |  |  |  |  |  |  | 100 |  |  |  |  | 
CC(NC(=O)c1cc(Br)cc(OC(F)(F)F)c1)c1nccnc1-c1ccccn1 (centres unmarked) [Example I-17] | 100 | 100 | 80 | 90 |  |  |  |  |  |  |  |  | 100 |  | 90 | 100 | 83 |  |  | 
CC(NC(=O)c1cc(C(F)(F)F)cc(C(F)(F)F)c1)c1nccnc1-c1ccc(Cl)cn1 (centres unmarked) [Example I-20] | 80 |  | 100 | 100 |  |  |  |  |  |  |  |  | 100 | 90 |  | 80 | 100 |  |  | 
CCN(C)C(=O)c1cnc(-c2nccnc2[C@H](C)NC(=O)c2cc(C(F)(F)F)cc(C(F)(F)F)c2)s1 [Example I-85, 2-(3-{(1S)-1-[3,5-bis(trifluoromethyl)benzamido]ethyl}pyrazin-2-yl)-N-ethyl-N-methyl-1,3-thiazole-5-carboxamide] |  |  | 100 | 100 |  | 80 to 100 |  | 80 to 100 |  | 100 | 100 | 100 | 100 |  |  | 100 | 100 | 80 to 100 | 100 | 90

Source: US12583851B2, “Heteroaryl-substituted pyrazine derivatives as pesticides” (Elanco Animal Health GmbH, priority 2019, dated 2026)
